# Results taken from patent US12559529B2, “NPY2 receptor agonists” (Boehringer Ingelheim International GmbH, priority 2019, dated 2026).
# Experiments:
# normal NMRI mice = assay: Effect on acute food intake in normal NMRI mice; type: in vivo; details: male NMRI mice, 10 nmol/kg subcutaneously once
# Outline: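 Male NMRI mice acclimatized in an HM-2 real-time food intake monitoring system, fasted 6 h before dark phase. Single subcutaneous dose of 10 nmol/kg peptide given 1 h before dark; n=7-8. Food intake expressed as % of vehicle group (50 mM phosphate pH7, 5% Mannitol).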
# [1] = molecular target: T1, Human Neuropeptide Y2 Receptor (Homo sapiens, UniProt P49146); assay: Radioligand binding competition assay (RLB); details: Table 3; human 125I-PYY (1-36) 0.02 nM, Y2 receptor membranes; read-out: Ki
# T1 construct: purchased CHEMICON HTS066M
# T1 sequence (P49146 1-381): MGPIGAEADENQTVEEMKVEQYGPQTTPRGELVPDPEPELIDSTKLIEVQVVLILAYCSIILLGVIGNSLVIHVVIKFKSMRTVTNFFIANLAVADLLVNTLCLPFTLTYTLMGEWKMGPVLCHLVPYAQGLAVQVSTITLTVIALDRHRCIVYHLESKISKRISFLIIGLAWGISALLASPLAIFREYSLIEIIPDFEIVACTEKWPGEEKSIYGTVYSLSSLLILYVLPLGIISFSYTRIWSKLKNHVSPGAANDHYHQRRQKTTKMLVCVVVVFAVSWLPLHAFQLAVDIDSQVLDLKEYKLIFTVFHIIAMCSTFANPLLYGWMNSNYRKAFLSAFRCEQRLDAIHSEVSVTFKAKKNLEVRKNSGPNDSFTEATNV
# Outline: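 Membranes (0.5 μg/well) and test peptides, serially diluted from 1 mM DMSO stocks, were incubated 2 hours at room temperature in HEPES buffer pH 7.4 with Mg, Ca and ovalbumin.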
Compound,Acute Food Intake 24 h [% vehicle] (normal NMRI mice),Ki [1] [nM]
"CC(C)CC(=O)N[C@@H](C)C(=O)N1CCC[C@H]1C(=O)N[C@@H](CCC(=O)O)C(=O)N[C@@H](CCCCNC(=O)COCCOCCNC(=O)COCCOCCNC(=O)CC[C@H](NC(=O)CCCCCCCCCCCCCCCCC(=O)O)C(=O)O)C(=O)N1CCC[C@H]1C(=O)N[C@@H](CCC(=O)O)C(=O)N[C@@H](C)C(=O)N[C@@H](CCC(=O)O)C(=O)N[C@@H](C)C(=O)N[C@@H](CO)C(=O)N1CCC[C@H]1C(=O)N[C@@H](CCC(=O)O)C(=O)N[C@@H](CCC(=O)O)C(=O)N[C@@H](CC(C)C)C(=O)N[C@@H](CCC(N)=O)C(=O)N[C@@H](CCCNC(=N)N)C(=O)N[C@@H](Cc1ccc(O)cc1)C(=O)N[C@@H](Cc1ccc(O)cc1)C(=O)N[C@H](C(=O)N[C@@H](CO)C(=O)N[C@@H](CC(C)C)C(=O)N[C@@H](CCCNC(=N)N)C(=O)N[C@@H](Cc1c[nH]cn1)C(=O)N[C@@H](Cc1ccc(O)cc1)C(=O)N[C@@H](Cc1ccc(O)cc1)C(=O)N[C@@H](CC(N)=O)C(=O)N[C@@H](Cc1c[nH]c2ccccc12)C(=O)N[C@@H](CC(C)C)C(=O)N[C@H](C(=O)N[C@@H](CCCNC(=N)N)C(=O)N[C@@H](CCC(N)=O)C(=O)N[C@@H](CCCNC(=N)N)C(=O)N[C@@H](Cc1ccc(O)cc1)C(N)=O)[C@@H](C)O)C(C)C [Compound 151, N{alpha-4}-(3-methylbutanoyl)-N{epsilon-7}-[2-(2-{2-[2-(2-{2-[(4S)-4-carboxy-4-(17-carboxyheptadecanamido)butanamido]ethoxy}ethoxy)acetamido]ethoxy}ethoxy)acetamido]-[4A,7K,9E,10A,11E,18Q,22V,28Y,30W,31L]hPYY (4-36)]",45,1.43
"CC(C)CC(=O)N[C@@H](C)C(=O)N1CCC[C@H]1C(=O)N[C@@H](CCC(=O)O)C(=O)N[C@@H](CCCCNC(=O)COCCOCCNC(=O)COCCOCCNC(=O)CC[C@H](NC(=O)CCCCCCCCCCCCCCCCC(=O)O)C(=O)O)C(=O)N1CCC[C@H]1C(=O)N[C@@H](CCC(=O)O)C(=O)N[C@@H](CCC(=O)O)C(=O)N[C@@H](C)C(=O)N[C@@H](C)C(=O)N[C@@H](CO)C(=O)N1CCC[C@H]1C(=O)N[C@@H](CCC(=O)O)C(=O)N[C@@H](CCC(=O)O)C(=O)N[C@@H](CC(C)C)C(=O)N[C@@H](CCC(N)=O)C(=O)N[C@@H](CCCNC(=N)N)C(=O)N[C@@H](Cc1ccc(O)cc1)C(=O)N[C@@H](Cc1ccc(O)cc1)C(=O)N[C@H](C(=O)N[C@@H](C)C(=O)N[C@@H](CC(C)C)C(=O)N[C@@H](CCCNC(=N)N)C(=O)N[C@@H](Cc1c[nH]cn1)C(=O)N[C@@H](Cc1ccc(O)cc1)C(=O)N[C@@H](Cc1ccc(O)cc1)C(=O)N[C@@H](CC(N)=O)C(=O)N[C@@H](Cc1c[nH]c2ccccc12)C(=O)N[C@@H](CC(C)C)C(=O)N[C@H](C(=O)N[C@@H](CCCNC(=N)N)C(=O)N[C@@H](CCC(N)=O)C(=O)N[C@@H](CCCNC(=N)N)C(=O)N[C@@H](Cc1ccc(O)cc1)C(N)=O)[C@@H](C)O)C(C)C [Compound 163, N{alpha-4}-(3-methylbutanoyl)-N{epsilon-7}-[2-(2-{2-[2-(2-{2-[(4S)-4-carboxy-4-(17-carboxyheptadecanamido)butanamido]ethoxy}ethoxy)acetamido]ethoxy}ethoxy)acetamido]-[4A,7K,9E,11A,18Q,22V,23A,28Y,30W,31L]hPYY (4-36)]",50,0.96
"CC(C)CC(=O)N[C@@H](C)C(=O)N1CCC[C@H]1C(=O)N[C@@H](C)C(=O)N[C@@H](CCCCNC(=O)COCCOCCNC(=O)COCCOCCNC(=O)CC[C@H](NC(=O)CCCCCCCCCCCCCCCCC(=O)O)C(=O)O)C(=O)N1CCC[C@H]1C(=O)N[C@@H](CCC(=O)O)C(=O)N[C@@H](CCC(=O)O)C(=O)N[C@@H](CC(=O)O)C(=O)N[C@@H](C)C(=O)N[C@@H](CO)C(=O)N1CCC[C@H]1C(=O)N[C@@H](CCC(=O)O)C(=O)N[C@@H](CCC(=O)O)C(=O)N[C@@H](CC(C)C)C(=O)N[C@@H](CCC(N)=O)C(=O)N[C@@H](CCCNC(=N)N)C(=O)N[C@@H](Cc1ccc(O)cc1)C(=O)N[C@@H](Cc1ccc(O)cc1)C(=O)N[C@H](C(=O)N[C@@H](CCC(=O)O)C(=O)N[C@@H](CC(C)C)C(=O)N[C@@H](CCCNC(=N)N)C(=O)N[C@@H](Cc1c[nH]cn1)C(=O)N[C@@H](Cc1ccc(O)cc1)C(=O)N[C@@H](Cc1ccc(O)cc1)C(=O)N[C@@H](CC(N)=O)C(=O)N[C@@H](Cc1c[nH]c2ccccc12)C(=O)N[C@@H](CC(C)C)C(=O)N[C@H](C(=O)N[C@@H](CCCNC(=N)N)C(=O)N[C@@H](CCC(N)=O)C(=O)N[C@@H](CCCNC(=N)N)C(=O)N[C@@H](Cc1ccc(O)cc1)C(N)=O)[C@@H](C)O)C(C)C [Compound 173, N{alpha-4}-(3-methylbutanoyl)-N{epsilon-7}-[2-(2-{2-[2-(2-{2-[(4S)-4-carboxy-4-(17-carboxyheptadecanamido)butanamido]ethoxy}ethoxy)acetamido]ethoxy}ethoxy)acetamido]-[4A,6A,7K,9E,18Q,22V,23E,28Y,30W,31L]hPYY (4-36)]",49,1.71
"CC(C)CC(=O)N[C@@H](C)C(=O)N1CCC[C@H]1C(=O)N[C@@H](C)C(=O)N[C@@H](CCCCNC(=O)COCCOCCNC(=O)COCCOCCNC(=O)CC[C@H](NC(=O)CCCCCCCCCCCCCCCCC(=O)O)C(=O)O)C(=O)N1CCC[C@H]1C(=O)N[C@@H](CCC(=O)O)C(=O)N[C@@H](CCC(=O)O)C(=O)N[C@@H](CC(=O)O)C(=O)N[C@@H](C)C(=O)N[C@@H](CCC(=O)O)C(=O)N1CCC[C@H]1C(=O)N[C@@H](CCC(=O)O)C(=O)N[C@@H](CCC(=O)O)C(=O)N[C@@H](CC(C)C)C(=O)N[C@@H](CCC(N)=O)C(=O)N[C@@H](CCCNC(=N)N)C(=O)N[C@@H](Cc1ccc(O)cc1)C(=O)N[C@@H](Cc1ccc(O)cc1)C(=O)N[C@H](C(=O)N[C@@H](CO)C(=O)N[C@@H](CC(C)C)C(=O)N[C@@H](CCCNC(=N)N)C(=O)N[C@@H](Cc1c[nH]cn1)C(=O)N[C@@H](Cc1ccc(O)cc1)C(=O)N[C@@H](Cc1ccc(O)cc1)C(=O)N[C@@H](CC(N)=O)C(=O)N[C@@H](Cc1c[nH]c2ccccc12)C(=O)N[C@@H](CC(C)C)C(=O)N[C@H](C(=O)N[C@@H](CCCNC(=N)N)C(=O)N[C@@H](CCC(N)=O)C(=O)N[C@@H](CCCNC(=N)N)C(=O)N[C@@H](Cc1ccc(O)cc1)C(N)=O)[C@@H](C)O)C(C)C [Compound 174, N{alpha-4}-(3-methylbutanoyl)-N{epsilon-7}-[2-(2-{2-[2-(2-{2-[(4S)-4-carboxy-4-(17-carboxyheptadecanamido)butanamido]ethoxy}ethoxy)acetamido]ethoxy}ethoxy)acetamido]-[4A,6A,7K,9E,13E,18Q,22V,28Y,30W,31L]hPYY (4-36)]",41,3.89
